Experimental data taken from patent US20070224321A1, “Baked Goods Comprising High-Potency Sweetener” (THE COCA-COLA COMPANY, priority 2005, published 2007).

Format: physicochemical
Experimental: A solution of rebaudioside A (>97% pure by HPLC ) was prepared in double distilled water (12.5 gm in 50 mL, 25% concentration) by stirring the mixture at 40° C. for 5 minutes. An amorphous form of_rebaudioside A was formed by immediately using the clear solution for spray drying with the Lab-Plant spray drier SD-04 instrument (Lab-Plant Ltd., West Yorkshire, U.K.). The solution was fed through the feed pump into the nozzle atomizer which atomized it into a spray of droplets with the help of a constant flow of nitrogen/air. […] This dry powder (11-12 g, H2O 6.74%) was discharged continuously from the drying chamber and was collected in a bottle.

solubility in water at room temperature: > 35.0%
Substance: rebaudioside A [Form 4]
